# Results as given in patent publication US20240025906A1 (NEURON23, INC., priority 2022, published 2024).
# Read-outs that look alike come from different tables or passages of the source.
# How the values were obtained:
# TYK2 JH2 = biological target: T1, TYK2 JH2 (Homo sapiens, UniProt P29597); assay: TYK2 JH2 binding assay (KINOMEscan KdELECT competitive binding); conditions: TYK2 JH2 domain
# T1 construct: purchased DiscoverX (KINOMEscan KdELECT service); host or cells: E. coli BL21-derived (T7 phage display) or HEK-293
# Outline: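 Kd values come from qPCR measurement of kinase retained on an immobilized-ligand resin after 1 h room-temperature competition with compound in an 11-point, 3-fold series.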
# [1] = test system: JAK1/TYK2 pSTAT5 (Tyr694/699) in THP-1 cell line; assay: IFNa-stimulated JAK1/TYK2 pSTAT5 (Tyr694/699) inhibition cellular assay, AlphaLISA; assay type: cell-based; conditions: Homo sapiens, THP-1 cells, AlphaLISA (Assay B)
# Outline: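 THP-1 cells (2e4/well in HBSS) were preincubated with compound (8 points, 6-fold steps from 10000 nM final) for 1 h at 37 °C, then stimulated with IFNa (added at 100 ng/mL) for 30 min. Lysate pSTAT5 was read by AlphaLISA at 615 nm. IC50 came from a 4-parameter fit with bottom 0 and Hill −1.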
# [2] = KINOMEscan KdELECT (Assay A), read-out: Biochemical TYK2_JH2_Kd
# [3] = IFNa-stimulated, read-out: Cellular THP1_IFNa-pSTATS_IC50
# [4] = DiscoverX KINOMEscan KdELECT (Assay A), read-out: Biochemical TYK2_DiscoverX_JH2_BND_Kd
# [5] = IFNa-stimulated, read-out: Cellular_THP1_IFNa-pSTATS_TYK2
# [6] = KINOMEscan KdELECT (Assay A), read-out: Biochemical TYK2_DiscoverX_JH2_BND_Kd
# [7] = IFNa-stimulated pSTAT5 (Tyr694/699), read-out: Cellular_THP1_IFNa-pSTATS_TYK2
# T1 sequence (P29597 589-875 limits assumed): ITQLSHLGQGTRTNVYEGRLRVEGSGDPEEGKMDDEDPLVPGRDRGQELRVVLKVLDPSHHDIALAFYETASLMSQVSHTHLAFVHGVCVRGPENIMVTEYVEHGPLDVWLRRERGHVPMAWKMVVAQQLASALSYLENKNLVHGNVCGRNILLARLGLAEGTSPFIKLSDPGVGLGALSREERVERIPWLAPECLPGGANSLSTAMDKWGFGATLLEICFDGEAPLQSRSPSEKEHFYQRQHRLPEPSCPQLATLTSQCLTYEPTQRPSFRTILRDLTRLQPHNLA
Structure (SMILES),Kd (TYK2 JH2; [4]),"IC50 [1, 5]",Kd (TYK2 JH2; [6]),other results
"CNc1ncc(-c2ccncn2)c2cc(NC(=O)C3CC3)ncc12 [Example 50, N-(8-(methylamino)-5-(pyrimidin-4-yl)-2,7-naphthyridin-3-yl)cyclopropanecarboxamide]",,,,"Kd (TYK2 JH2; [2]): ≤ 100 nM; IC50 [1, 3]: > 500 nM"
"CNc1ncc(-c2nc3cc(OC)ccc3o2)c2cc(NC(=O)CC(F)(F)F)ncc12 [Example 386, 3,3,3-trifluoro-N-(5-(5-methoxybenzo[d]oxazol-2-yl)-8-(methylamino)-2,7-naphthyridin-3-yl)propanamide]",≤ 100 nM,≤ 500 nM,,
"CNc1ncc(-c2ccc(-c3cnn(C)n3)cc2)c2cc(NC(=O)C3CC3)ncc12 [Example 851, N-(5-(4-(2-methyl-2H-1,2,3-triazol-4-yl)phenyl)-8-(methylamino)-2,7-naphthyridin-3-yl)cyclopropanecarboxamide]",,≤ 500 nM,≤ 100 nM,
"CNc1ncc(-c2nc3cc(OC)ccc3o2)c2cc(NC(=O)CC(C)(O)CO)ncc12 (stereo not shown) [Example 402, 3,4-dihydroxy-N-(5-(5-methoxybenzo[d]oxazol-2-yl)-8-(methylamino)-2,7-naphthyridin-3-yl)-3-methylbutanamide]",≤ 100 nM,> 500 nM,,
"CCC(=O)c1cnc(NC)c2cnc(NC(=O)C3CC3)cc12 [Example 128, N-((methylamino)-5-propionyl-2,7-naphthyridin-3-yl)cyclopropanecarboxamide]",,,,"Kd (TYK2 JH2; [2]): ≤ 100 nM; IC50 [1, 3]: > 500 nM"
"[2H]C([2H])([2H])Nc1ncc(-c2nc3cc(OC)ccc3o2)c2cc(NC(=O)[C@@H]3C[C@@H]3C)ncc12 (single isomer, unassigned) [Example 437]",≤ 100 nM,≤ 500 nM,,
"CNc1ncc(-c2nc3cc(N4CCO[C@@H](C)C4)ccc3o2)c2cc(NC(=O)C3CC3)nnc12 [Example 890, (S)—N-(8-(methylamino)-5-(5-(2-methylmorpholino)benzo[d]oxazol-2-yl)pyrido[3,4-c]pyridazin-3-yl)cyclopropanecarboxamide]",,≤ 500 nM,≤ 100 nM,
"CNc1ncc(-c2cc(-c3ccccc3)[nH]n2)c2cc(NC(=O)C3CC3)ncc12 [Example 881, N-(8-(methylamino)-5-(5-phenyl-1H-pyrazol-3-yl)-2,7-naphthyridin-3-yl)cyclopropanecarboxamide]",,> 500 nM,≤ 100 nM,
"CNc1ncc(-c2nc3cc(N4CCC(F)CC4)ccc3o2)c2cc(NC(=O)C3CC3)ncc12 [Example 916, N-[5-[5-(4-fluoro-1-piperidyl)-1,3-benzoxazol-2-yl]-8-(methylamino)-2,7-naphthyridin-3-yl]cyclopropanecarboxamide]",,≤ 500 nM,≤ 100 nM,
"CNc1ncc(CCc2cc(OC)cc(-c3ncnn3C)c2)c2cc(NC(=O)C3CC3)ncc12 [Example 826, N-(5-(3-methoxy-5-(1-methyl-1H-1,2,4-triazol-5-yl)phenethyl)-8-(methylamino)-2,7-naphthyridin-3-yl)cyclopropanecarboxamide]",,> 500 nM,≤ 100 nM,
"CNc1ncc(-c2nc3ccc(N4CCC(F)(F)CC4)cn3n2)c2cc(NC(=O)[C@H]3C[C@H]3C)ncc12 [Example 558, (1S,2R)—N-(5-(6-(4,4-difluoropiperidin-1-yl)-[1,2,4]triazolo[1,5-a]pyridin-2-yl)-8-(methylamino)-2,7-naphthyridin-3-yl)-2-methylcyclopropane-1-carboxamide]",≤ 100 nM,≤ 500 nM,,
"CNc1ncc(-c2nc3cc(N4CCO[C@H](C)C4)ccc3o2)c2cc(NC(=O)[C@@H]3C[C@@H]3F)ncc12 [Example 418, (1S,2S)-2-fluoro-N-(8-(methylamino)-5-(5-((R)-2-methylmorpholino)benzo[d]oxazol-2-yl)-2,7-naphthyridin-3-yl)cyclopropane-1-carboxamide]",≤ 100 nM,≤ 500 nM,,
"CNc1ncc(-c2ccnn2C2CCCCO2)c2cc(NC(=O)C3CC3)ncc12 (stereo not shown) [Example 51, N-(8-(methylamino)-5-(1-(tetrahydro-2H-pyran-2-yl)-1H-pyrazol-5-yl)-2,7-naphthyridin-3-yl)cyclopropanecarboxamide]",,,,"Kd (TYK2 JH2; [2]): 1000 to 10000 nM; IC50 [1, 3]: > 500 nM"
CNc1ncc(-c2nc3ccc(C(C)(C)O)cn3n2)c2cc(NC(=O)C3CC3)ncc12 [Example 1041],,,≤ 100 nM,"IC50 [1, 7]: ≤ 500 nM"
"CNc1ncc(-c2nc3ccc(C(F)(F)F)cn3n2)c2cc(NC(=O)C3CC3)ncc12 [Example 496, N-(8-(methylamino)-5-(6-(trifluoromethyl)-[1,2,4]triazolo[1,5-a]pyridin-2-yl)-2,7-naphthyridin-3-yl)cyclopropanecarboxamide]",≤ 100 nM,≤ 500 nM,,
"CCNc1ncc(-c2nc3cc(OC)ccc3o2)c2cc(NC(=O)C3CC3)ncc12 [Example 459, N-(8-(ethylamino)-5-(5-methoxybenzo[d]oxazol-2-yl)-2,7-naphthyridin-3-yl)cyclopropanecarboxamide]",≤ 100 nM,≤ 500 nM,,
"CNc1ncc(-c2ccc(OC3CC3)cc2)c2cc(NC(=O)C3CC3)ncc12 [Example 117, N-(5-(4-cyclopropoxyphenyl)-8-(methylamino)-2,7-naphthyridin-3-yl)cyclopropanecarboxamide]",,,,"Kd (TYK2 JH2; [2]): ≤ 100 nM; IC50 [1, 3]: > 500 nM"
"CNc1ncc(-c2nc3cc(N4CC[C@H](OC)C4)ccc3o2)c2cc(NC(=O)C3CC3)ncc12 [Example 282, (S)-N-(5-(5-(3-methoxypyrrolidin-1-yl)benzo[d]oxazol-2-y1)-8-(methylamino)-2,7-naphthyridin-3-yl)cyclopropanecarboxamide]",≤ 100 nM,≤ 500 nM,,
"CNc1ncc(-c2nc3cc(OCC(C)(C)N4CCOCC4)ccc3o2)c2cc(NC(=O)C3CC3)ncc12 [Example 352, N-(5-(5-(2-methyl-2-morpholinopropoxy)benzo[d]oxazol-2-yl)-8-(methylamino)-2,7-naphthyridin-3-yl)cyclopropanecarboxamide]",≤ 100 nM,≤ 500 nM,,

# Now from value to molecule, other results behind:
Kd (TYK2 JH2; [4]),"IC50 [1, 5]",Kd (TYK2 JH2; [6]),Structure (SMILES),other results
,≤ 500 nM,≤ 100 nM,"CNc1ncc(C#Cc2ccc3nc4n(c3c2)CCC=C4)c2cc(NC(=O)C3CC3)ncc12 [Example 808, N-(5-((1,2-dihydrobenzo[4,5]imidazo[1,2-a]pyridin-8-yl)ethynyl)-8-(methylamino)-2,7-naphthyridin-3-yl)cyclopropanecarboxamide]",
,≤ 500 nM,≤ 100 nM,"CNc1ncc(C#Cc2ncc(OC)cc2F)c2cc(NC(=O)C3CC3)ncc12 [Example 665, N-(5-((3-fluoro-5-methoxypyridin-2-yl)ethynyl)-8-(methylamino)-2,7-naphthyridin-3-yl)cyclopropanecarboxamide]",
,,≤ 100 nM,"CNc1ncc(C#Cc2ccc(-n3c(=O)ccn3C)cc2)c2cc(NC(=O)[C@H]3C[C@H]3C)ncc12 [Example 1142, (1S,2R)-2-methyl-N-[8-(methylamino)-5-[2-[4-(2-methyl-5-oxo-pyrazol-1-yl)phenyl]ethynyl]-2,7-naphthyridin-3-yl]cyclopropanecarboxamide]","IC50 [1, 7]: ≤ 500 nM"
,≤ 500 nM,≤ 100 nM,"CNc1ncc(-c2ccc(Oc3ccccn3)cc2)c2cc(NC(=O)C3CC3)ncc12 [Example 863, N-(8-(methylamino)-5-(4-(pyridin-2-yloxy)phenyl)-2,7-naphthyridin-3-yl)cyclopropanecarboxamide]",
,≤ 500 nM,≤ 100 nM,"CNc1ncc(C#Cc2ccc(OC3CN(C(C)=O)C3)cc2)c2cc(NC(=O)[C@@H]3C[C@@H]3C(F)F)ncc12 (single isomer, unassigned) [Example 777]",
,≤ 500 nM,≤ 100 nM,"CNc1ncc(C#Cc2ccc(-n3ccnn3)cn2)c2cc(NC(=O)C3CC3)ncc12 [Example 952, N-(5-((5-(1H-1,2,3-triazol-1-yl)pyridin-2-yl)ethynyl)-8-(methylamino)-2,7-naphthyridin-3-yl)cyclopropanecarboxamide]",
,≤ 500 nM,≤ 100 nM,"CNc1ncc(C#Cc2ccc(-n3cccn3)cc2)c2cc(NC(=O)C3CC3)ncc12 [Example 806, N-(5-((4-(1H-pyrazol-1-yl)phenyl)ethynyl)-8-(methylamino)-2,7-naphthyridin-3-yl)cyclopropanecarboxamide]",
,≤ 500 nM,≤ 100 nM,"CNc1ncc(C#Cc2ccc(NC(=O)COC)cc2)c2cc(NC(=O)C3CC3)ncc12 [Example 737, N-(5-((4-(2-methoxyacetamido)phenyl)ethynyl)-8-(methylamino)-2,7-naphthyridin-3-yl)cyclopropanecarboxamide]",
,≤ 500 nM,≤ 100 nM,"CNc1ncc(/C=C/c2ccc(OCCC#N)cc2)c2cc(NC(=O)C3CC3)ncc12 [Example 794, (E)-N-(5-(4-(2-cyanoethoxy)styryl)-8-(methylamino)-2,7-naphthyridin-3-yl)cyclopropanecarboxamide]",
,≤ 500 nM,≤ 100 nM,"CNc1ncc(C#Cc2ccc(N3CCOCC3)cc2)c2cc(NC(=O)C3CC3)ncc12 [Example 624, N-(8-(methylamino)-5-((4-morpholinophenyl)ethynyl)-2,7-naphthyridin-3-yl)cyclopropanecarboxamide]",
